Assay results published in patent publication US20110059526A1, “REPROGRAMMING A CELL BY INDUCING A PLURIPOTENT GENE THROUGH USE OF AN HDAC MODULATOR” (NUPOTENTIAL, INC., priority 2008, published 2011).

Legend:
[1] = system: Oct-4 expression, primary human lung cells; test: Quantitative RT-PCR of Oct-4 in primary human lung cells grown with VPA; type: cell-based; conditions: 5 mM VPA, three days, p<0.01
Procedure: (§1) Cell culture. Primary human lung cells were purchased from Cell Applications (San Diego, Calif.), and were maintained at 37° C. in 95% humidity and 5% CO2 in Dulbecco's modified eagle medium (DMEM, Hyclone) containing 10% fetal bovine serum (FBS, Hyclone) and 0.5% penicillin and streptomycin. Cells were grown in the presence of 1 mM VPA, 5 mM VPA or in the absence of VPA for three days.
Quantitative RT-PCR. Expression of Oct-4 and Nanog were determined by real-time RT-PCR for each culture condition (0 mM VPA, 1 mM VPA, and 5 mM VPA). Briefly, total RNA was prepared from cultures using Trizol Reagent (Life Technologies, Gaithersburg, Md.) and RNeasy Mini kit (Qiagen; Valencia, Calif.) with DNase I digestion according to manufacturer's protocol. Total RNA (1 μg) from each sample was subjected to oligo(dT)-primed reverse transcription (Invitrogen; Carlsbad, Calif.). Real-time PCR reactions will be performed with PCR master mix on a 7300 real-time PCR system (Applied Biosystems; Foster City, Calif.). For each sample, 1 μl of diluted cDNA (1:10) will be added as template in PCR reactions. The expression level of Oct-4 and Nanog was normalized to GAPD.

[2] = system: stemness genes, primary human lung cells; test: Human Embryonic Taqman Low Density Array (TLDA) analysis of stemness genes in VPA-treated cells; type: cell-based; conditions: 5 mM VPA, three days
Procedure: as §1
Embryonic Taqman Low Density Array Analysis. Expression levels of several genes that contribute to a cell being pluripotentail (“stemness genes”) were determined using the Human Embryonic Taqman Low Density Array Analysis (TLDA). Several stemness genes were analyzed: GABRB3, LEFTB, NR6A1, PODXL, and PTEN. In addition, the expression level of the DNA methyl transferase DNMT3B was determined. The Applied Biosystems Human Embryonic TLDA, which contains 90 embryonic stem cell and developmental genes and 6 endogenous control genes, was used for quantitative real time RT-PCR to quantify relative expression levels (Applied Biosytems, Foster City, Calif.). Briefly, following reverse-transcription of RNA using the ABI High Capacity cDNA Reverse Transcription Kit (ABI; Foster City, Calif.), 150 ng sample cDNA in 50 μl nuclease-free water+50 μl ABI Universal Taqman 2×PCR Master Mix was pipetted into each port of the TLDA microfluidic card, and analyzed on the ABI 7900HT Fast Real Time PCR System. The ^ΔΔCT method was used to calculate relative quantities (fold change) in gene expression levels in treated cells relative to untreated control cells. The treated cells may also be compared to federally-approved human embryonic stem cells.

[3] = system: first exon of the Oct-4 gene; test: Bisulfite sequencing of the Oct-4 promoter/first exon; type: cell-based; conditions: VPA-treated primary human lung cells
Procedure: as §1
Bisulfite Sequencing. Bisulfite sequencing is the use of bisulfite treatment of DNA to determine the pattern of methylation. Bisulfite sequencing is based on the fact that treatment of DNA with bisulfite converts cytosine residues to uracil, but leaves 5-methylcytosine residues unaffected. Bisulfite treatment thus introduces specific changes in the DNA sequence that depend on the methylation status of individual cytosine residues, yielding very high-resolution information about the methylation status of a segment of DNA.
Methylation of pluripotent gene promoters was analyzed by bisulfite sequencing. Briefly, DNA was purified by phenolchloroform-isoamylalcohol extraction. Bisulfite conversion was performed using the EZ DNA Methylation kit following the manufacturer's protocol (Zymo Research; Orange, Calif.). The conversion rate of all cytosines in non-CpG dinucleotides to uracils was 100%. Converted DNA was amplified by PCR using primers for human Oct3/4, Nanog, and SOX2. […]

[4] = system: Oct-4 gene expression, HLFa; test: Small molecules, Oct-4 gene expression by qRT-PCR (Table III), HLFa; type: cell-based, human; conditions: dose 5 mM, Rx Time 5
[5] = system: Oct-4 gene expression, HLFf; test: Small molecules, Oct-4 gene expression by qRT-PCR (Table III), HLFf; type: cell-based, human; conditions: dose 5 mM, Rx Time 5
[6] = system: Sox-2 and Nanog gene expression, human dermal fibroblasts; test: VPA effect on Sox-2 and Nanog gene expression in human dermal fibroblasts (FIG. 17); type: cell-based; conditions: VPA 5 mM, 4-6 days, multiple dermal fibroblast cell types
Procedure: FIG. 17 is a bar graph reporting the effects of VPA (5 mM) on gene expression of Oct-4, Sox-2 and Nanog in human dermal fibroblasts. Significance relative to control within each cell type: *p<0.05; **p<0.03; and ***p<0.01.
Quantitative RT-PCR. Expression of Oct-4 was determined by real-time RT-PCR. Briefly, total RNA was prepared from cultures using Trizol Reagent (Life Technologies, Gaithersburg, Md.) and RNeasy Mini kit (Qiagen; Valencia, Calif.) with DNase I digestion according to manufacturer's protocol. Total RNA (1 μg) from each sample was subjected to oligo(dT)-primed reverse transcription (Invitrogen; Carlsbad, Calif.). Real-time PCR reactions will be performed with PCR master mix on a 7300 real-time PCR system (Applied Biosystems; Foster City, Calif.). For each sample, 1 μl of diluted cDNA (1:10) will be added as template in PCR reactions. The expression level of Cot-4 was normalized to glyceraldehyde 3-phosphate-dehydrogenase (GAPD).
Pluripotency gene expression was increased in multiple dermal fibroblast cell types following exposure to VPA for 4-6 days. mRNA levels were determined by real time qRT-PCR and normalized with GAPDH.

[7] = system: HDAC and DNMT1 gene expression, BJ dermal fibroblasts; test: VPA effect on HDAC and DNMT1 gene expression in BJ dermal fibroblasts (FIG. 18); type: cell-based, human; conditions: 500 μM VPA, 7 days, BJFs; HDAC1 p<0.01, SIRT4 p 0.05, DNMT1 p<0.005
Procedure: FIG. 18 is a bar graph reporting the effects of VPA (500 μM) on HDAC and DNMT1 gene expression in BJ dermal fibroblasts (obtained from ATCC).
FIG. 18 reports the effects of 500 μM VPA on HDAC and DNMT1 gene expression in BJFs. Cells were exposed to VPA for 7 days. […] Statistical significance was as follows: HDAC1 (p<0.01); SIRT4 (p, 0.05) and DNMT1 (p<0.005).

CCCC(CCC)C(=O)O [VPA, valproic acid]
expression of Oct4 up-regulated compared to control cells [1]: ~2.7 fold
expression of DNA methyltransferase DNMT3B [2]: down-regulated
stemness-related genes not detected in control cells (FOXD3, NR5A2, TERT, LIFR, SFRP2, TFCP2L1, LIN28, SOX2, XIST) [2]: induced
expression of stemness genes GABRB3, LEFTB, NR6A1, PODXL, PTEN ([2]; n=three replicates): up-regulation
methylation of cytosines in the first exon of Oct-4 [3]: demethylation of two cytosines
Oct4 FC [4]: 4
Oct4 FC [5]: 5
expression of Sox-2 and Nanog [6]: increase in expression
HDAC1, SIRT4 and DNMT1 gene expression compared to control cells [7]: significantly u-regulated
